Measurements as given in PubChem BioAssay (NCI).
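Following 48 hours of exposure in 96-well plates, responses at five concentrations were used to interpolate endpoints linearly. TGI is the concentration that stops growth completely.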

Legend:
Assay in all cases: NCI-60 cell line screen, 48 h
[1] = tested on: HCC-2998 colon
[2] = tested on: SW-620 colon
[3] = tested on: 786-0 renal
[4] = tested on: RXF 393 renal
[5] = tested on: HCT-15 colon
[6] = tested on: K-562 leukemia
[7] = tested on: UO-31 renal
[8] = tested on: M14 melanoma
[9] = tested on: HCT-116 colon
[10] = tested on: TK-10 renal
[11] = tested on: SF-539 CNS
[12] = tested on: A549 NSCLC
[13] = tested on: PC-3 prostate
[14] = tested on: MDA-MB-231 breast
[15] = tested on: OVCAR-8 ovarian
[16] = tested on: NCI/ADR-RES ovarian
[17] = tested on: MDA-MB-435
[18] = tested on: BT-549 breast
[19] = tested on: MALME-3M melanoma
[20] = tested on: UACC-62 melanoma

Question: With N#Cc1c(N)c2c(c(-c3ccccc3)c1-c1ccccc1)C(=O)N(Nc1ccccc1)C2=O as the compound, how does the TGI [1] read?
Answer: > 100 µM

Question: And the TGI [2]?
Answer: > 100 µM

Question: And the TGI [3]?
Answer: > 100 µM

Question: What about the TGI [4] of the same compound?
Answer: 65.2 µM

Question: And the TGI [5]?
Answer: > 100 µM

Question: And the TGI [6]?
Answer: > 100 µM

Question: What about the TGI [7] of the same compound?
Answer: 78.3 µM

Question: What about the TGI [8] of the same compound?
Answer: 87.4 µM

Question: What about the TGI [9] of the same compound?
Answer: 43.7 µM

Question: What about the TGI [10] of the same compound?
Answer: > 100 µM

Question: What about the TGI [11] of the same compound?
Answer: > 100 µM

Question: And the TGI [12]?
Answer: > 100 µM

Question: And the TGI [13]?
Answer: > 100 µM

Question: What about the TGI [14] of the same compound?
Answer: > 100 µM

Question: And the TGI [15]?
Answer: > 100 µM

Question: What about the TGI [16] of the same compound?
Answer: > 100 µM

Question: What about the TGI [17] of the same compound?
Answer: > 100 µM

Question: What about the TGI [18] of the same compound?
Answer: > 100 µM

Question: What about the TGI [19] of the same compound?
Answer: > 100 µM

Question: What about the TGI [20] of the same compound?
Answer: > 100 µM

Question: N#Cc1nc(Sc2cnsn2)c(Sc2cnsn2)nc1C#N was tested. Which TGI [1] did it give?
Answer: 33.5 µM

Question: What about the TGI [2] of the same compound?
Answer: > 22.5 µM

Question: And the TGI [3]?
Answer: 33.6 µM

Question: What about the TGI [4] of the same compound?
Answer: 12.3 µM

Question: And the TGI [5]?
Answer: 13.1 µM

Question: What about the TGI [6] of the same compound?
Answer: > 81.8 µM

Question: And the TGI [7]?
Answer: 65.6 µM

Question: And the TGI [8]?
Answer: 60.7 µM

Question: And the TGI [9]?
Answer: 17.1 µM

Question: What about the TGI [10] of the same compound?
Answer: 12.1 µM

Question: And the TGI [11]?
Answer: 41.4 µM

Question: And the TGI [12]?
Answer: > 77.4 µM

Question: And the TGI [13]?
Answer: 51 µM

Question: What about the TGI [14] of the same compound?
Answer: 48.7 µM

Question: And the TGI [15]?
Answer: > 75.5 µM

Question: And the TGI [16]?
Answer: 54.3 µM

Question: And the TGI [17]?
Answer: 33.8 µM

Question: And the TGI [18]?
Answer: 39.2 µM

Question: And the TGI [19]?
Answer: 33.3 µM

Question: And the TGI [20]?
Answer: 32.5 µM

Question: How did the TGI [1] turn out when CCNc1nc(N)c(C(=O)c2cccs2)s1 was run?
Answer: > 100 µM

Question: And the TGI [2]?
Answer: > 100 µM

Question: What about the TGI [3] of the same compound?
Answer: > 100 µM

Question: What about the TGI [4] of the same compound?
Answer: 20 µM

Question: What about the TGI [5] of the same compound?
Answer: > 100 µM

Question: What about the TGI [6] of the same compound?
Answer: > 100 µM

Question: And the TGI [7]?
Answer: > 100 µM

Question: And the TGI [8]?
Answer: > 100 µM

Question: And the TGI [9]?
Answer: > 100 µM

Question: And the TGI [10]?
Answer: > 100 µM

Question: What about the TGI [11] of the same compound?
Answer: 46.4 µM

Question: And the TGI [12]?
Answer: > 100 µM

Question: And the TGI [13]?
Answer: > 100 µM

Question: And the TGI [14]?
Answer: > 100 µM

Question: What about the TGI [15] of the same compound?
Answer: > 100 µM

Question: And the TGI [16]?
Answer: > 100 µM

Question: And the TGI [17]?
Answer: 82.6 µM

Question: What about the TGI [18] of the same compound?
Answer: > 100 µM

Question: And the TGI [19]?
Answer: > 100 µM

Question: What about the TGI [20] of the same compound?
Answer: 51.8 µM

Question: For Cc1ccc(/C=N/Nc2cc(C)c3ccccc3n2)s1, which TGI [1] is on record?
Answer: 33.8 µM

Question: What about the TGI [2] of the same compound?
Answer: > 100 µM

Question: What about the TGI [3] of the same compound?
Answer: > 100 µM

Question: And the TGI [4]?
Answer: 75.5 µM

Question: What about the TGI [5] of the same compound?
Answer: 25.6 µM

Question: And the TGI [6]?
Answer: 39.2 µM

Question: And the TGI [7]?
Answer: > 100 µM

Question: And the TGI [8]?
Answer: 42.8 µM

Question: And the TGI [9]?
Answer: > 100 µM

Question: What about the TGI [10] of the same compound?
Answer: > 100 µM

Question: What about the TGI [11] of the same compound?
Answer: 51.5 µM

Question: And the TGI [12]?
Answer: 40.6 µM

Question: What about the TGI [13] of the same compound?
Answer: 31.1 µM

Question: And the TGI [14]?
Answer: 19.9 µM

Question: What about the TGI [15] of the same compound?
Answer: > 100 µM

Question: What about the TGI [16] of the same compound?
Answer: 90.6 µM

Question: And the TGI [17]?
Answer: > 100 µM

Question: And the TGI [18]?
Answer: 42 µM

Question: What about the TGI [19] of the same compound?
Answer: 22.4 µM

Question: And the TGI [20]?
Answer: > 100 µM

Question: Which TGI [1] does the source give for CCOC(=O)c1ccc(NC(=O)O/N=C(/Cl)C(C)C)cc1 here?
Answer: 33.2 µM

Question: And the TGI [2]?
Answer: 4.32 µM

Question: And the TGI [3]?
Answer: 16.5 µM

Question: And the TGI [4]?
Answer: 30.6 µM

Question: And the TGI [5]?
Answer: 24.9 µM

Question: What about the TGI [6] of the same compound?
Answer: 3.52 µM

Question: What about the TGI [7] of the same compound?
Answer: 31.9 µM

Question: What about the TGI [8] of the same compound?
Answer: 14.6 µM

Question: And the TGI [9]?
Answer: 22.4 µM

Question: What about the TGI [10] of the same compound?
Answer: 33.5 µM

Question: And the TGI [11]?
Answer: 34.6 µM

Question: And the TGI [12]?
Answer: 47.7 µM

Question: What about the TGI [13] of the same compound?
Answer: 34.9 µM

Question: What about the TGI [14] of the same compound?
Answer: 39.7 µM

Question: What about the TGI [15] of the same compound?
Answer: 27.9 µM

Question: And the TGI [16]?
Answer: 37.5 µM

Question: What about the TGI [17] of the same compound?
Answer: 32.5 µM

Question: And the TGI [18]?
Answer: 32.7 µM

Question: And the TGI [19]?
Answer: 8.49 µM

Question: What about the TGI [20] of the same compound?
Answer: 38.2 µM

Question: CCOC(=O)NC(Nc1ccc(F)c(F)c1)(C(=O)OCC)C(F)(F)F (stereo not given) was tested. Which TGI [1] did it give?
Answer: > 100 µM

Question: And the TGI [2]?
Answer: > 100 µM

Question: What about the TGI [3] of the same compound?
Answer: > 100 µM

Question: And the TGI [4]?
Answer: > 100 µM

Question: And the TGI [5]?
Answer: > 100 µM

Question: What about the TGI [6] of the same compound?
Answer: > 100 µM

Question: And the TGI [7]?
Answer: > 100 µM

Question: What about the TGI [8] of the same compound?
Answer: > 100 µM

Question: And the TGI [9]?
Answer: > 100 µM

Question: What about the TGI [10] of the same compound?
Answer: > 100 µM

Question: And the TGI [11]?
Answer: > 100 µM

Question: And the TGI [12]?
Answer: > 100 µM

Question: What about the TGI [13] of the same compound?
Answer: > 100 µM

Question: What about the TGI [14] of the same compound?
Answer: > 100 µM

Question: What about the TGI [15] of the same compound?
Answer: > 100 µM

Question: What about the TGI [16] of the same compound?
Answer: > 100 µM

Question: And the TGI [17]?
Answer: > 100 µM

Question: What about the TGI [18] of the same compound?
Answer: > 100 µM

Question: What about the TGI [19] of the same compound?
Answer: > 100 µM

Question: What about the TGI [20] of the same compound?
Answer: > 100 µM

Question: N#C/C(=C\c1ccc(F)cc1)c1nc2ccccc2c(=O)[nH]1 was tested. Which TGI [1] did it give?
Answer: > 100 µM

Question: And the TGI [2]?
Answer: > 100 µM

Question: And the TGI [3]?
Answer: > 100 µM

Question: What about the TGI [4] of the same compound?
Answer: > 100 µM

Question: And the TGI [5]?
Answer: > 100 µM

Question: What about the TGI [6] of the same compound?
Answer: > 100 µM

Question: And the TGI [7]?
Answer: > 100 µM

Question: What about the TGI [8] of the same compound?
Answer: > 100 µM

Question: What about the TGI [9] of the same compound?
Answer: > 100 µM

Question: And the TGI [10]?
Answer: > 100 µM

Question: What about the TGI [11] of the same compound?
Answer: > 100 µM

Question: And the TGI [12]?
Answer: > 100 µM

Question: What about the TGI [13] of the same compound?
Answer: > 100 µM

Question: And the TGI [14]?
Answer: > 100 µM

Question: What about the TGI [15] of the same compound?
Answer: > 100 µM

Question: And the TGI [16]?
Answer: > 100 µM

Question: And the TGI [17]?
Answer: > 100 µM

Question: And the TGI [18]?
Answer: > 100 µM

Question: What about the TGI [19] of the same compound?
Answer: > 100 µM

Question: And the TGI [20]?
Answer: > 100 µM
